“Also recorded” adds a separate entry of the source.

For one data set, the system named is p-eIF2α. In words: Western immunoblotting, p-eIF2α in RAW264.7 cells. Type of data set: cell-based, mouse. Conditions: with RANKL. The source says:
(§1) METHOD EXAMPLE. Reduction of RANKL-induced NFATcl, c-Fos, TRAP, and OSCAR by guanabenz. […] The normalized level of “1” was defined as the level for the cells that were not treated with RANKL without administration of guanabenz.
(§2) METHOD EXAMPLE. Western Immunoblotting. Cells were lysed in a radioimmunoprecipitation assay (RIPA) buffer containing protease inhibitors (Santa Cruz Biotechnology, Santa Cruz, Calif., USA) and phosphatase inhibitors (Calbiochem, Billerica, Mass., USA). Isolated proteins were fractionated using 10-15% SDS gels and electro-transferred to Immobilon-P membranes (Millipore, Billerica, Mass., USA). The membrane was incubated for 1 h with primary antibodies followed by 45 min incubation with goat anti-rabbit or anti-mouse IgG conjugated with horseradish peroxidase (Cell Signaling, Danvers, Mass., USA). We used antibodies against ATF4, NFATcl (Santa Cruz), p-eIF2α (Thermo Scientific, Waltham, Mass., USA), eIF2α, caspase 3, cleaved caspase 3, p38 and p-p38 mitogen activated protein kinase (MAPK), extracellular signal-regulated kinase (ERK) and p-ERK, nuclear factor kappa B (NFκB) p65 and p-NFκB p65 (Cell Signaling), and β-actin (Sigma). Protein levels were assayed using a SuperSignal west femto maximum sensitivity substrate (Thermo Scientific), and signal intensities were quantified with a luminescent image analyzer (LAS-3000, Fuji Film, Tokyo, Japan).
METHOD EXAMPLE. […]
For orientation: A western blot detects proteins with antibodies after separation by electrophoresis.

A further data set deals with c-Fos. The experiment in a line: Quantitative real-time PCR, c-Fos mRNA in RAW264.7 cells. Type of data set: cell-based, mouse. As to the method: METHOD EXAMPLE. Quantitative real-time PCR. Total RNA was extracted using an RNeasy Plus mini kit (Qiagen, Germantown, Md., USA). Reverse transcription was conducted with high capacity cDNA reverse transcription kits (Applied Biosystems, Carlsbad, Calif., USA), and quantitative real-time PCR was performed using ABI 7500 with Power SYBR green PCR master mix kits (Applied Biosystems). We evaluated mRNA levels of ATF4, Osteocalcin (OCN), NFATcl, c-Fos, tartrate-resistant acid phosphatase (TRAP), and osteoclast-associated receptor (OSCAR) with the PCR primers listed in Table 1. GAPDH was used for internal control. The relative mRNA abundance for the selected genes with respect to the level of GAPDH mRNA was expressed as a ratio of Streated/Scontrol, where Streated=mRNA level for the cells treated with chemical agents, and Scontrol=mRNA level for control cells.
METHOD EXAMPLE. Partial suppression of mRNA levels of NFATcl, c-Fos, TRAP, and OSCAR by salubrinal. […] On day 2, for instance, the RANKL-driven increase was 9.4±0.5 fold (NFATcl), 1.9±0.1 fold (c-fos), 165±4.2 fold (TRAP), and 467±22 fold (OSCAR). The reduction by 20 μM salubrinal was 46% (NFATcl), 32% (c-fos), 35% (TRAP), and 21% (OSCAR) (FIG. 5A).
as §1
For orientation: Real-time PCR tracks product formation cycle by cycle.

In a further data set the test system is RAW264.7 cells. In words: Osteoclastogenesis in vitro and TRAP staining. Type of data set: cell-based, mouse. To be noted: for number of TRAP-positive multi-nucleated cells: with 20 ng/ml RANKL, 5 days of culture; for growth area covered by multi-nucleated cells: dose dependent. The procedure: METHOD EXAMPLE. Inhibition of osteoclastogenesis of RAW264.7 cells by salubrinal. The primary aim of this study is to evaluate the effects of salubrinal on osteoclastogenesis. In response to 0.1-20 μM salubrinal for 24 h, cell mortality and live cell numbers of RAW264.7 pre-osteoclasts was examined. […] The number of live cells was increased by ˜50% by incubation with RANKL, and administration of 10-20 μM salubrinal reduced the numbers approximately by 10% (FIG. 3B).
METHOD EXAMPLE. Inhibitory effects of guanabenz on osteoclastogenesis of RAW264.7 cells. To further examine a potential involvement of p-eIF2α in regulation of osteoclastogenesis, we employed guanabenz that also acts as an inhibitor of de-phosphorylation of eIF2α was evaluated. […] Compared to the number of TRAP-positive multi-nucleated cells of 377 39 (RANKL only), guanabenz reduced the number of differentiated osteoclasts to 364±38 (1 μM), 288±51 (5 μM), 189±25 (10 μM), and 73±16 (20 μM).
METHOD EXAMPLE. Osteoclastogenesis in vitro and TRAP (Tartrate-resistant acid phosphatase) staining. RAW264.7 cells were plated at a density of 5×10^3/cm^2 into a 12-well or a 60 mm dish, and cultured with 20 ng/ml RANKL in the presence and absence of salubrinal or guanabenz. The culture medium was replaced every 2 days. After 5 days of culture, the cells were stained for TRAP staining using an acid phosphatase leukocyte kit (Sigma). The number of TRAP-positive cells containing three or more nuclei was determined

A further data set concerns p-NFκB. The experiment in a line: Western immunoblotting, p-NFκB in RAW264.7 cells. Conditions: 20 μM salubrinal. Format: cell-based, mouse. The procedure: as §2
(§3) METHOD EXAMPLE. Temporal profile of p-eIF2α and NFATcl. […] Note that the normalized level of “1” in FIG. 6C was defined as the level for the cells that were not treated with RANKL without administration of guanabenz.

The subject of the next data set is cleaved caspase 3. The experiment in a line: Western immunoblotting, cleaved caspase 3 in MC3T3 E1-14 cells. Type of data set: cell-based, mouse. Conditions: 10 μM salubrinal, 24 h. As to the method:
as §2
METHOD EXAMPLE. Enhanced mineralization of MC3T3 E1-14 cells by salubrinal. […]

Data set [1] concerns MC3T3 E1 mouse osteoblast-like cells (clone 14). In words: Cell mortality and proliferation of MC3T3 E1-14 cells. Type of data set: cell-based. Conditions: 5-20 μM salubrinal. The procedure: METHOD EXAMPLE. Cell culture. MC3T3 E1 mouse osteoblast-like cells (clone 14—MC3T3 E1-14; and no clonal cells in supplementary figures), and RAW264.7 mouse pre-osteoclast (monocyte/macrophage) cells were cultured in αMEM containing 10% fetal bovine serum and antibiotics (50 units/ml penicillin, and 50 μg/ml streptomycin; Life Technologies, Grand Island, N.Y., USA). Cells were maintained at 37° C. and 5% CO2 in a humidified incubator. Cell mortality and live cell numbers were determined 24 h after the treatment with 20 ng/ml RANKL (PeproTech, Rocky Hills, N.C., USA) in response to 0.1-20 μM salubrinal or 1-20 μM guanabenz acetate (Tocris Bioscience, Ellisville, Mo., USA). Cells were stained with trypan blue and the numbers of live and dead cells were counted using a hemacytometer.
METHOD EXAMPLE. Enhanced mineralization of MC3T3 E1-14 cells by salubrinal. Prior to examining the effects of salubrinal on osteoclastogenesis, its effects on development of osteoblasts was tested, focusing on cell viability, phosphorylation of eIF2α (p-eIF2α), expression of ATF4 and osteocalcin, and matrix mineralization. […] The enhanced mineralization was also observed in non-clonal MC3T3 E1 cells (Supplementary FIG. S1).

Another data set concerns p-ERK. The experiment in a line: Western immunoblotting, p-ERK in RAW264.7 cells. Format: cell-based, mouse. Conditions: 20 μM salubrinal. The procedure: as §2, §3

On to `N=C(N)N/N=C/c1c(Cl)cccc1Cl` [guanabenz], for which the “temporal expression profile of p-eIF2α” value with p-eIF2α (20 μM guanabenz) was “upregulatcd in 2 h”. For the same compound, in the data set on c-Fos (20 μM guanabenz, 2 days after RANKL), the “c-Fos mRNA level” value is recorded as “reduced”. In addition, the “number of TRAP-positive multi-nucleated cells” value in the data set with RAW264.7 cells (1 μM) amounted to 364±38; with RAW264.7 cells (5 μM) it was 288±51; in the data set with RAW264.7 cells (10 μM), 189±25; in the data set with RAW264.7 cells (20 μM), 73±16. Besides, the “growth area covered by multi-nucleated cells” value in the data set with RAW264.7 cells is “significantly reduced”. Besides, the “osteoclastogenesis of RAW264.7 cells” value in the data set on RAW264.7 cells (guanabenz dose response, with RANKL) is given as “attenuated osteoclastogenesis of RAW264.7 cells in a dose dependent manner”.
In the case of `O=C(/C=C/c1ccccc1)NC(NC(=S)Nc1cccc2cccnc12)C(Cl)(Cl)Cl` (stereo not drawn) [salubrinal], the “phosphorylation level of NFκB” value in the data set with p-NFκB is “did not significantly alter; also recorded: no detectable changes”. Also, in the data set with p-eIF2α (20 μM salubrinal, early period (2-4 h)), the “level of p-eIF2α” value is recorded as “increased the level of p-eIF2α”. For the same compound, the “reduction of c-fos mRNA level” value in the data set with c-Fos (20 μM salubrinal, day 2 after RANKL) was found to be 32%. For the same compound, the “c-fos mRNA level” value with c-Fos (0.1-1 μM salubrinal, with RANKL, except on day 4) is recorded as “did not contribute to significant reduction”. For the same compound, the “expression level of cleaved caspase 3” value in the data set on cleaved caspase 3 was “did not elevate”. In data set [1], the cell mortality entry is recorded as “did not increase cell mortality or inhibit cell proliferation” and the cell proliferation result is listed as “did not increase cell mortality or inhibit cell proliferation”. In addition, in the data set with p-ERK, the “phosphorylation level of ERK” value is reported as “did not significantly alter; also recorded: no detectable changes”. Moreover, the “number of TRAP-positive cells” value in the data set on RAW264.7 cells (0.5 μM to 20 μM salubrinal, with RANKL) was “reduced the number of TRAP-positive cells in a dose dependent manner”. Moreover, the “growth area covered by multi-nucleated cells” value with RAW264.7 cells is on record as “significantly reduced”.

(Values after patent US20160279079A1, “COMPOSITIONS AND METHODS FOR TREATING BONE DISEASES” (INDIANA UNIVERSITY RESEARCH AND TECHNOLOGY CORPORATION, priority 2013, published 2016).)
